The values that follow come from patent US11833185B2, “Anti-neurodegenerative therapeutic, method of manufacture, and use” (UNIVERSITY OF KENTUCKY RESEARCH FOUNDATION, priority 2017, dated 2023).

Data set [1] in a line: Plasma levels by LC-MS/MS after subcutaneous administration. Format: in vivo, rat. The note with it: 100 mg/kg s.c. in saline.
The conditions of data set [2]: rat, in vivo, sc.
For data set [3], the system named is MN9D neuronal cells. Nature of the data set: LIVE/DEAD and JC-1 assays for toxicity and loss of mitochondrial potentials. To be noted: 100 nM, 1 and 3 hours post treatment. On the procedure:
(§1) Testing involved permutations of size and diversifying amino acid sequence at each residue position. Sequence design began with Proline-Proline-Glutamate-Alanine-Proline-Alanine-Glutamate-Aspartate-Arginine-Serine-Leucine-NH2. […] These properties were tested using the dopaminergic MN9D neuronal cell line. Each candidate peptide sequence was dissolved in citrate buffer and added to MN9D cells (Choi et al., 1992) that were cultured in Dulbecco's Modified Eagle's Medium [DMEM (containing pyridoxol HCl); Sigma, St. Louis, MO] supplemented with 10% Fetal Bovine serum (HyClone, Logan, UT), 50 U/ml penicillin and streptomycin to a final 100 nM concentration. Using LIVE/DEAD and JC-1 assays in MN9D neuronal cells, individual library sequences were measured for toxicity and loss of mitochondrial potentials at 1 and 3 hours post treatment. […] The remaining sequences were then tested for their ability to provide protection against neurotoxins rotenone, 1-methyl-4-phenylpyridinium (MPP+), and trichloromethyl-1,2,3,4-tetrahydro-β-carboline (TaClo).

The conditions of data set [4]: rat, in vivo, sc, 100 mg/kg.
Data set [5] concerns MN9D neuronal cells. Nature of the data set: Protection of mitochondrial potentials against rotenone, MPP+ and TaClo-induced cytotoxicity. In kind it is cell-based. To be noted: 100 nM pretreatment, 1, 3, 12, 24 hours. How it is done:
as §1

Where a SMILES comes first, the peptide text is derived from it.

On to `C[C@H](NC(=O)[C@@H]1CCCN1C(=O)[C@H](C)NC(=O)[C@@H](N)CCC(=O)O)C(=O)N[C@@H](CCC(=O)O)C(N)=O` [AV2157, Glutamate-Alanine-Proline-Alanine-Glutamate-NH2] (H-EAPAE-NH2; N-terminus assumed), for which the “total lifetime in plasma” value in data set [1] is roughly 120 min. Moreover, the Cmax in data set [1] (rat, plasma, sc, read-out: maximum plasma level) was 1250 ng/mL. In addition, the Tmax in data set [1] (rat, plasma, sc, read-out: time of maximum plasma level post administration (converted)) is 20 min. For the same compound, the “improved CNS bioavailability compared to AV6403” value in data set [2] is given as “over 10 times”. Also, the toxicity result in data set [3] is “low toxicity”. For the same compound, in data set [4], the half-life fell in the range of 50 to 60 min. For the same compound, the “protection against neurotoxins (rotenone, MPP+, TaClo)” value in data set [5] is recorded as “protection against neurotoxin exposure at all time points measured”.

As usually defined, the half-life is the time needed for the level to fall by half in the phase considered. Higher therefore signals slow decline.
